Data published in ChEMBL document CHEMBL2074358, “Differential gene expression of organic anion transporters in male and female rats” (Biochem Biophys Res Commun, 2002).

Experiments:
[1] = molecular target: T1, Solute carrier family 22 member 7 (Rattus norvegicus, UniProt Q5RLM2); experiment: (§1) TP_TRANSPORTER: Northern blot in vivo, kidney of Wistar rat; assay type: functional, organism-based
T1 sequence (Q5RLM2 whole entry): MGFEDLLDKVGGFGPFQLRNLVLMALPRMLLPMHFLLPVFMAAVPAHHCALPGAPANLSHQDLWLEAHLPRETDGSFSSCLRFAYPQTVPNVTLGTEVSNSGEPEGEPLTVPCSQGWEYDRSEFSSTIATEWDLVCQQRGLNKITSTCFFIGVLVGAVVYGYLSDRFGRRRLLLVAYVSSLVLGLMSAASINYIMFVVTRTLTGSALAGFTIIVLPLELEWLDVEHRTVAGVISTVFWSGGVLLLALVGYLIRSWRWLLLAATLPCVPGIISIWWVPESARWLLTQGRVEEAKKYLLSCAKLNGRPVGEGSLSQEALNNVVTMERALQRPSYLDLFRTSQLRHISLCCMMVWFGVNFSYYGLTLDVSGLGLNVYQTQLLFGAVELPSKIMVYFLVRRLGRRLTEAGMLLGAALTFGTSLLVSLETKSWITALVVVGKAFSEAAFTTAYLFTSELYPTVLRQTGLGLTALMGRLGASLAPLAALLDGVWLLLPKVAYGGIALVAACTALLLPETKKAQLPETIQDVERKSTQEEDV

[2] = molecular target: T2, Organic anion transporter 3 (Rattus norvegicus, UniProt Q9R1U7); experiment: as §1; assay type: functional, organism-based
T2 sequence (Q9R1U7 whole entry): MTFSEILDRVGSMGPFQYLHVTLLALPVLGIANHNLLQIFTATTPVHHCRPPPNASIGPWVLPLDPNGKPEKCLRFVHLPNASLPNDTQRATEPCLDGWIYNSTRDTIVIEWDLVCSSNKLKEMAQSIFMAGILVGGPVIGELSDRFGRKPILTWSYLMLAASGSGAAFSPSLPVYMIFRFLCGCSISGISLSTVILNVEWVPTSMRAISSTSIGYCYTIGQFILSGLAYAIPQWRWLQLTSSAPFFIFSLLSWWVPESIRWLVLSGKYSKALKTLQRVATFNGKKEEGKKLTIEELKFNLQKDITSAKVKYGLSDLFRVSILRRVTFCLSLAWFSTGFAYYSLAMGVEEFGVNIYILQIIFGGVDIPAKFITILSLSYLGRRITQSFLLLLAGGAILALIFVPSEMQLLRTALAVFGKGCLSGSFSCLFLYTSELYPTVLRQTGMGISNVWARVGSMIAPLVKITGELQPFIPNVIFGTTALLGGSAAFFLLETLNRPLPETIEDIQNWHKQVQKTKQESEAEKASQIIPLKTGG

Question: For `C[C@]12CC[C@H]3[C@@H](CCC4=CC(=O)CC[C@@]43C)[C@@H]1CC[C@@H]2O` [TESTOSTERONE], which Activity [1] is on record?
Answer: Its Activity is “inducer [Decrease]”.

Question: And the Activity [2]?
Answer: The Activity was “inducer [+]”.
